Reference: ChEMBL document CHEMBL1153180, “Discovery and initial optimization of 5,5'-disubstituted aminohydantoins as potent beta-secretase (BACE1) inhibitors” (Bioorg Med Chem Lett, 2010)
Converted amounts (≈) assume the structure as drawn.

Target: T1, Beta-secretase 1 (Homo sapiens, UniProt P56817)
Experiment: Inhibition of human BACE1 by FRET assay
Conditions: not given

T1 sequence (P56817 whole entry): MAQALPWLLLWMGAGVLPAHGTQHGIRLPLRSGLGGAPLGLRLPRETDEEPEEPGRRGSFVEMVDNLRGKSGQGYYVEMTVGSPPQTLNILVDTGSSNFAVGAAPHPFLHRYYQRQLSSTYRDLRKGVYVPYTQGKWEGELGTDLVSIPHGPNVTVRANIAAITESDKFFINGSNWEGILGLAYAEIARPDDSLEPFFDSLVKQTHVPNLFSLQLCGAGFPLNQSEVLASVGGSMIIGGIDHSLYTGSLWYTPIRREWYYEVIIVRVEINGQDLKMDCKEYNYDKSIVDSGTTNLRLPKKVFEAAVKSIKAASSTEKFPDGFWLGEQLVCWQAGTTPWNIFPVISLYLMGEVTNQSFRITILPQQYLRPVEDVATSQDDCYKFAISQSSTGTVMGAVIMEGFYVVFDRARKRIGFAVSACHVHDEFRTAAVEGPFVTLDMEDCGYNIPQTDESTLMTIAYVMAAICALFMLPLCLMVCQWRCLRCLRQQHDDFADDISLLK

| Compound | IC50 |
| --- | --- |
| CCCCCCN1C(=O)C(c2ccccc2)(C2CCCCC2)N=C1N (stereo not drawn) | 1390 nM |
| NC1=NC(c2ccccc2)(C2CCCCC2)C(=O)N1Cc1cc(F)cc(F)c1 (stereo not drawn) | 1080 nM |
| NC1=NC(c2ccccc2)(C2CCCCC2)C(=O)N1CC1CCCO1 (stereo not drawn) | 1040 nM |
| COCCC(=O)Nc1cccc(C2(C3CCCCC3)N=C(N)N(C)C2=O)c1 (stereo not drawn) | 7860 nM |
| COc1cccc(C(=O)Nc2cccc(C3(C4CCCCC4)N=C(N)N(C)C3=O)c2)c1 (stereo not drawn) | 1360 nM |
| CN1C(=O)C(C2CCCCC2)(C2CCCCC2)N=C1N | 1080 nM |
| NC1=NC(c2ccccc2)(C2CCCCC2)C(=O)N1C[C@H]1CC[C@H](C(=O)O)CC1 (stereo partly drawn) | 390 nM |
| CCCC(=O)Nc1cccc(C2(C3CCCCC3)N=C(N)N(C)C2=O)c1 (stereo not drawn) | 2850 nM |
| CN1C(=O)C(c2cccc(NC(=O)c3ccco3)c2)(C2CCCCC2)N=C1N (stereo not drawn) | 100 nM |
| CN1C(=O)C(c2ccccc2)(C2CCCCC2)N=C1N (stereo not drawn) | 990 nM |
| NC1=NC(c2ccccc2)(C2CCCCC2)C(=O)N1Cc1ccccc1 (stereo not drawn) | 1240 nM |
| CN1C(=O)C(c2cccc(NC(=O)c3ccc4c(c3)OCO4)c2)(C2CCCCC2)N=C1N (stereo not drawn) | 380 nM |
| NC1=NC(c2ccccc2)(C2CCCCC2)C(=O)N1CCCCCC(=O)O (stereo not drawn) | 950 nM |

Test system: not listed separately
Experiment: Membrane permeability by PAMPA-BBB assay
Assay type: ADME
Conditions: read-out: permeability

| Compound | Papp |
| --- | --- |
| NC1=NC(c2ccccc2)(c2ccccc2)C2=NCCCN12 | 8.6 ×10⁻⁶ cm/s |
| CN1C(=O)C(C2CCCCC2)(C2CCCCC2)N=C1N | 7.7 ×10⁻⁶ cm/s |
| CN1C(=O)C(c2ccccc2)(c2ccccc2)N=C1N | 11.1 ×10⁻⁶ cm/s |
| CN1C(=O)C(c2ccccc2)(C2CCCCC2)N=C1N (stereo not drawn) | 12.8 ×10⁻⁶ cm/s |
| Cc1ccoc1C(=O)Nc1cccc(C2(C3CCCCC3)N=C(N)N(C)C2=O)c1 (stereo not drawn) | 13.7 ×10⁻⁶ cm/s |

Test system: not listed separately
Experiment: Membrane permeability by PAMPA
Assay type: ADME
Conditions: read-out: permeability

| Compound | Papp |
| --- | --- |
| NC1=NC(c2ccccc2)(c2ccccc2)C2=NCCCN12 | 1 ×10⁻⁶ cm/s |
| CN1C(=O)C(C2CCCCC2)(C2CCCCC2)N=C1N | 2.9 ×10⁻⁶ cm/s |
| CN1C(=O)C(c2ccccc2)(c2ccccc2)N=C1N | 3 ×10⁻⁶ cm/s |
| CN1C(=O)C(c2ccccc2)(C2CCCCC2)N=C1N (stereo not drawn) | 7.2 ×10⁻⁶ cm/s |
| Cc1ccoc1C(=O)Nc1cccc(C2(C3CCCCC3)N=C(N)N(C)C2=O)c1 (stereo not drawn) | 1.4 ×10⁻⁶ cm/s |

Target: Beta-secretase 1 (Cricetulus griseus, UniProt G3IAK4)
Sequence (G3IAK4 whole entry): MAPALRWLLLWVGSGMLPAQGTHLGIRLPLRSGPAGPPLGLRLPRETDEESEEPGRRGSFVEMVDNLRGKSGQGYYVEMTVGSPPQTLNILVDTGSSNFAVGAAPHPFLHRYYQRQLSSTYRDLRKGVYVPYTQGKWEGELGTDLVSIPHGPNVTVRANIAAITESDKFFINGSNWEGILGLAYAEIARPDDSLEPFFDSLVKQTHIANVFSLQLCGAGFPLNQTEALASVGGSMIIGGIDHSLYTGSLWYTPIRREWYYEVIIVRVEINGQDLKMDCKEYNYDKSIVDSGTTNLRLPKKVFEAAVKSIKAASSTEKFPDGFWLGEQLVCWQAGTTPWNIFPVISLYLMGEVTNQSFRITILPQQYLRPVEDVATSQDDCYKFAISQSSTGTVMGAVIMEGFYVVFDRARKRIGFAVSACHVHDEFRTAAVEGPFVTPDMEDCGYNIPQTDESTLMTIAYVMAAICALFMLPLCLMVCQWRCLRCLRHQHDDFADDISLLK
Experiment: Inhibition of human recombinant APP expressed in CHO-K1 cells assessed as reduction of amyloid beta level by ELISA
Assay type: cell-based
Conditions: not given

| Compound | EC50 |
| --- | --- |
| NC1=NC(c2ccccc2)(c2ccccc2)C2=NCCCN12 | 16000 nM |
| CN1C(=O)C(C2CCCCC2)(C2CCCCC2)N=C1N | 1030 nM |
| CN1C(=O)C(c2ccccc2)(c2ccccc2)N=C1N | 4170 nM |
| CN1C(=O)C(c2ccccc2)(C2CCCCC2)N=C1N (stereo not drawn) | 810 nM |
| Cc1ccoc1C(=O)Nc1cccc(C2(C3CCCCC3)N=C(N)N(C)C2=O)c1 (stereo not drawn) | 180 nM |

Target: T1, Beta-secretase 1
Experiment: Inhibition of human BACE1 at 5 uM by FRET assay
Conditions: not given

| Compound | inhibition |
| --- | --- |
| NC1=NC(c2ccccc2)(C2CCCCC2)C(=O)N1CCCO (stereo not drawn) | 56% |

Target: T2, Beta-secretase 2 (Homo sapiens, UniProt Q9Y5Z0)
T2 sequence (Q9Y5Z0 whole entry): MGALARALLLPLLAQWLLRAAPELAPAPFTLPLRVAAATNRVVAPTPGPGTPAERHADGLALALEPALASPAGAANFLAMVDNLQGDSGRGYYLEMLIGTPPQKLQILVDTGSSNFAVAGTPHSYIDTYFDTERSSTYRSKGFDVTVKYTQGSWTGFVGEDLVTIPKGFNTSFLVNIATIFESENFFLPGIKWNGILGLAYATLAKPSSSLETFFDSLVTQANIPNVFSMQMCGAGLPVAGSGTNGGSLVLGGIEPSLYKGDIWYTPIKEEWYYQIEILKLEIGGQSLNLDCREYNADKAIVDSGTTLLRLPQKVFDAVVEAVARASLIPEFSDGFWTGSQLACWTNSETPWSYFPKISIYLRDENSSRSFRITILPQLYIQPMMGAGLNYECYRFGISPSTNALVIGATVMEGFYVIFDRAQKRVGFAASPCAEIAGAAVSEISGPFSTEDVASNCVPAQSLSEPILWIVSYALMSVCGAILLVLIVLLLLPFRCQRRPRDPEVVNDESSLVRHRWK
Experiment: Inhibition of human BACE2 by FRET assay
Conditions: not given

| Compound | IC50 |
| --- | --- |
| CCCCCCN1C(=O)C(c2ccccc2)(C2CCCCC2)N=C1N (stereo not drawn) | 270 nM |
| NC1=NC(c2ccccc2)(C2CCCCC2)C(=O)N1Cc1cc(F)cc(F)c1 (stereo not drawn) | 410 nM |
| NC1=NC(c2ccccc2)(C2CCCCC2)C(=O)N1CC1CCCO1 (stereo not drawn) | 170 nM |
| COCCC(=O)Nc1cccc(C2(C3CCCCC3)N=C(N)N(C)C2=O)c1 (stereo not drawn) | 1850 nM |
| CN1C(=O)C(c2cccc(NC(=O)c3cccn3C)c2)(C2CCCCC2)N=C1N (stereo not drawn) | 180 nM |
| COc1cccc(C(=O)Nc2cccc(C3(C4CCCCC4)N=C(N)N(C)C3=O)c2)c1 (stereo not drawn) | 490 nM |
| CN1C(=O)C(C2CCCCC2)(C2CCCCC2)N=C1N | 510 nM |
| NC1=NC(c2ccccc2)(C2CCCCC2)C(=O)N1CCCO (stereo not drawn) | 1650 nM |
| CN1C(=O)C(c2ccccc2)(c2ccccc2)N=C1N | 770 nM |
| NC1=NC(c2ccccc2)(C2CCCCC2)C(=O)N1C[C@H]1CC[C@H](C(=O)O)CC1 (stereo partly drawn) | 120 nM |
| CCCC(=O)Nc1cccc(C2(C3CCCCC3)N=C(N)N(C)C2=O)c1 (stereo not drawn) | 490 nM |
| CN1C(=O)C(c2cccc(NC(=O)c3ccco3)c2)(C2CCCCC2)N=C1N (stereo not drawn) | 20 nM |
| COCC(=O)Nc1cccc(C2(C3CCCCC3)N=C(N)N(C)C2=O)c1 (stereo not drawn) | 40 nM |
| CN1C(=O)C(c2ccccc2)(C2CCCCC2)N=C1N (stereo not drawn) | 510 nM |
| NC1=NC(c2ccccc2)(C2CCCCC2)C(=O)N1Cc1ccccc1 (stereo not drawn) | 570 nM |
| CN1C(=O)C(c2cccc(NC(=O)c3ccc4c(c3)OCO4)c2)(C2CCCCC2)N=C1N (stereo not drawn) | 1150 nM |
| NC1=NC(c2ccccc2)(C2CCCCC2)C(=O)N1CCCCCC(=O)O (stereo not drawn) | 310 nM |
| Cc1ccoc1C(=O)Nc1cccc(C2(C3CCCCC3)N=C(N)N(C)C2=O)c1 (stereo not drawn) | 30 nM |

Test system: not listed separately
Experiment: Solubility at pH 7.4
Assay type: physicochemical
Conditions: buffer

| Compound | solubility |
| --- | --- |
| NC1=NC(c2ccccc2)(c2ccccc2)C2=NCCCN12 | 55 µg/mL (≈ 189 µM) |
| CN1C(=O)C(C2CCCCC2)(C2CCCCC2)N=C1N | > 100 µg/mL |
| CN1C(=O)C(c2ccccc2)(c2ccccc2)N=C1N | > 100 µg/mL |
| CN1C(=O)C(c2ccccc2)(C2CCCCC2)N=C1N (stereo not drawn) | > 100 µg/mL |
| Cc1ccoc1C(=O)Nc1cccc(C2(C3CCCCC3)N=C(N)N(C)C2=O)c1 (stereo not drawn) | 41 µg/mL (≈ 104 µM) |

Target: T3, Cathepsin D (Homo sapiens, UniProt P07339)
T3 sequence (P07339 65-162 limits assumed): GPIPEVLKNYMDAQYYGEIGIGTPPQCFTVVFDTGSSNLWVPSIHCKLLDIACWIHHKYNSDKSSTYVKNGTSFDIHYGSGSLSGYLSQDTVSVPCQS
T3 sequence (P07339 169-412 limits assumed): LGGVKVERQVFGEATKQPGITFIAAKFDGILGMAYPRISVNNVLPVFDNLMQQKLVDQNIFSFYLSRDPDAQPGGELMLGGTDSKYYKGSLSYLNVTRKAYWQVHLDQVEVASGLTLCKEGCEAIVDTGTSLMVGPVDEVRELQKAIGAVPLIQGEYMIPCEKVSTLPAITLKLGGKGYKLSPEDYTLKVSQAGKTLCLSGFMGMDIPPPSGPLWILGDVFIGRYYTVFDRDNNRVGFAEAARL
Experiment: Inhibition of human cathepsin D by FRET assay
Conditions: not given

| Compound | IC50 |
| --- | --- |
| CN1C(=O)C(c2ccccc2)(C2CCCCC2)N=C1N (stereo not drawn) | 24000 nM |
| Cc1ccoc1C(=O)Nc1cccc(C2(C3CCCCC3)N=C(N)N(C)C2=O)c1 (stereo not drawn) | 17100 nM |

Target: T3, Cathepsin D
Experiment: Inhibition of human cathepsin D at 100 uM by FRET assay
Conditions: not given

| Compound | inhibition |
| --- | --- |
| NC1=NC(c2ccccc2)(c2ccccc2)C2=NCCCN12 | 2% |
| CN1C(=O)C(C2CCCCC2)(C2CCCCC2)N=C1N | 33% |
| CN1C(=O)C(c2ccccc2)(c2ccccc2)N=C1N | 34% |
| CN1C(=O)C(c2ccccc2)(C2CCCCC2)N=C1N (stereo not drawn) | 38% |
